For 1 molecule, Kd results are on record in publication PMC8508694, “Insights into the Genetic Variations of Human Cytochrome P450 2C9: Structural Analysis, Characterization and Comparison” (International Journal of Molecular Sciences, 2021).

Series [1] concerns the target T1, CYP2C9*3 (Homo sapiens, UniProt P11712, I359L/V490I).
T1 construct: residues 1 to 23 (N-terminal transmembrane anchor) replaced with MAKKT, V490I, C-terminal four-histidine tag
In words: ITC. It is filed as binding.

For series [2], the target named is T2, CYP2C9*8 (Homo sapiens, UniProt P11712, R150H/V490I).
T2 construct: residues 1 to 23 (N-terminal transmembrane anchor) replaced with MAKKT, V490I, C-terminal four-histidine tag
T2 sequence (P11712 24-490 R150H/V490I): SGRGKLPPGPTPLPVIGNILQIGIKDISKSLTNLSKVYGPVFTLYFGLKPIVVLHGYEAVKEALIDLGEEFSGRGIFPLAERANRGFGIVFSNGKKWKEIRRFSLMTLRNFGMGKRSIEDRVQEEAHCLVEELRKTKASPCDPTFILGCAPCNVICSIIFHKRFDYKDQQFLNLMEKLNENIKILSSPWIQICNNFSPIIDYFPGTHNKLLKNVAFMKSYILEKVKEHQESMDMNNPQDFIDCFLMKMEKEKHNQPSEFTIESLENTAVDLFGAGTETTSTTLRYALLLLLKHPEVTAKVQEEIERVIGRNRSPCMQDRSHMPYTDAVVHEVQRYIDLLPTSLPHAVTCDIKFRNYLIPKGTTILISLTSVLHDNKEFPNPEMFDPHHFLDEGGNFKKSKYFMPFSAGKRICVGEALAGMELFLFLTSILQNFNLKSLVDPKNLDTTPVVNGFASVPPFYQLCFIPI
In words: ([…] Å) and ITC. Type of series: binding.

T1 sequence (P11712 24-490 I359L/V490I): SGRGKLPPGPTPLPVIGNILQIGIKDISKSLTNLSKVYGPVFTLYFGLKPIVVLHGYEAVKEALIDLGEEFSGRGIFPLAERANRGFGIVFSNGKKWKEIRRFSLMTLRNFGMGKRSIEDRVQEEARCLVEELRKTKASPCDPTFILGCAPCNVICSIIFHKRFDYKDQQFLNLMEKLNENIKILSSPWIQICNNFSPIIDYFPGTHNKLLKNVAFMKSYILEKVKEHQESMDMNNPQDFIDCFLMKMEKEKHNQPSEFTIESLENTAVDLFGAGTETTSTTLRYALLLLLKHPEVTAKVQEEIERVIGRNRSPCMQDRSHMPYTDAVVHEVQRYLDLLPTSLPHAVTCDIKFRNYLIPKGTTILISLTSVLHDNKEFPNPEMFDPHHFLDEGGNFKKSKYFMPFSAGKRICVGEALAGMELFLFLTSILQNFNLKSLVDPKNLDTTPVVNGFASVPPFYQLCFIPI

One may read the Kd as a measure of binding affinity in units of concentration. High values mean lower affinity, low ones higher affinity. Turning to `CCCCc1nc(Cl)c(CO)n1Cc1ccc(-c2ccccc2-c2nn[nH]n2)cc1` [losartan], the Kd in series [1] is 24.5 ± 2.7 µM; in series [2] it was 8.95 ± 0.97 µM.
